From patent US20080050448A1, “ANTIMICROBIAL CONJUGATES” (priority 2006, published 2008)

Columns and labels:
[1] = tested on: Staphylococcus aureus NCTC 6571; assay: Lethal photosensitisation of S. aureus by TBO-tiopronin-gold nanoparticle conjugate, white light (and dark controls), viable counting; type: cell-based
[2] = tested on: Staphylococcus aureus NCTC 6571; assay: Lethal photosensitisation of S. aureus by gold nanoparticle-photosensitiser mixtures, white light, viable counting; type: cell-based
Method: Gold nanoparticles (2.0 nm diameter; British Biocell International) in water (15×10^13 particles per ml) were mixed with an equal volume of an aqueous solution of toluidine blue O (40 μM) and left at room temperature for 15 minutes. 100 μl of the gold-TB solution was added to 100 μl of a suspension of Staphylococcus aureus NCTC 6571 in phosphate buffered saline (PBS) and this was irradiated with white light from a fluorescent white lamp for 10 minutes. Controls consisted of:
(i) TB (final concentration=10 μM) and bacteria, irradiated for the same period of time,
(ii) nanogold (diluted 1:1 with water) and bacteria, irradiated for the same period of time,
(iii) bacteria without TB or nanogold, not irradiated (“control”).
After irradiation, the number of surviving bacteria was determined by viable counting. […] Note that the TB concentration and light energy dose used were designed to give sub-optimal kills so that differences in efficacy of the TB and the TB-nanogold could be discerned. Preliminary experiments using 30 minutes light exposure achieved total kills of the bacterial suspensions in both cases.
Gold nanoparticles of approximately 15 nm in diameter (batches NN1 and NN2 above) were mixed with an equal volume of aqueous toluidine blue O (TB) and left at room temperature for 15 minutes. TB was used at a final concentration of 1, 5, 10, 20 or 50 μM. 100 μl of the TB-gold mixture was added to 100 μl of a suspension of Staphylococcus aureus NCTC 6571 in phosphate buffered saline (PBS) (adjusted to an optical density of 0.05), and samples were irradiated with a fluorescent white light (28 W) for 10 minutes. S. aureus+TB only, and S. aureus+PBS, without photosensitiser or nanogold were used as controls. The final concentration of nanogold used was 1×10^15 particles/ml. After irradiation, the numbers of surviving bacteria were enumerated by viable counting.
The method of Example 2 was repeated using gold nanoparticles of 2 nm diameter (British Biocell International). The final concentration of nanogold used was 4×10^13 particles/ml. […]

Question: For Cc1cc2nc3ccc(N(C)C)cc3[s+]c2cc1N.[Cl-] [TB only, toluidine blue O], which “effect on S. aureus” value ([1]; irradiated with white light for any length of time (15, 30, 45 minutes)) is on record?
Answer: The value was “no effect”.

Question: And the “concentration at which significant kills of the organism were exhibited (only at this concentration)” value ([1]; white light 30 mins)?
Answer: Its value is 2.0 μm.

Question: And the “% Kill” value ([2]; 10 min 28 W fluorescent white lamp, 2.0 nm gold, TB final 10 μM)?
Answer: Its value is 93.7%.

Question: And the “kill of the bacterial suspension” value ([2]; preliminary experiments, 30 minutes light exposure)?
Answer: Its value is “total kills”.

Question: What about the “S. aureus (cfu/ml)” value ([2]; surviving bacteria after 10 min 28 W fluorescent white lamp, 2.0 nm gold, TB final 10 μM) of the same compound?
Answer: The value was 8570000 cfu/ml.
